Reference: publication PMC7503225, “Repositioning Dequalinium as Potent Muscarinic Allosteric Ligand by Combining Virtual Screening Campaigns and Experimental Binding Assays” (International Journal of Molecular Sciences, 2020)

Experiments:
[1] = biological target: T1, [3H]-NMS-occupied muscarinic hM2 subtype (Homo sapiens, UniProt P08172); assay: One point kinetic (off-rate) assay of [3H]-NMS dissociation; type: binding
T1 construct: expressed in transfected cells; host or cells: CHO cells, stably transfected; membrane fractions
T1 sequence (P08172 1-466): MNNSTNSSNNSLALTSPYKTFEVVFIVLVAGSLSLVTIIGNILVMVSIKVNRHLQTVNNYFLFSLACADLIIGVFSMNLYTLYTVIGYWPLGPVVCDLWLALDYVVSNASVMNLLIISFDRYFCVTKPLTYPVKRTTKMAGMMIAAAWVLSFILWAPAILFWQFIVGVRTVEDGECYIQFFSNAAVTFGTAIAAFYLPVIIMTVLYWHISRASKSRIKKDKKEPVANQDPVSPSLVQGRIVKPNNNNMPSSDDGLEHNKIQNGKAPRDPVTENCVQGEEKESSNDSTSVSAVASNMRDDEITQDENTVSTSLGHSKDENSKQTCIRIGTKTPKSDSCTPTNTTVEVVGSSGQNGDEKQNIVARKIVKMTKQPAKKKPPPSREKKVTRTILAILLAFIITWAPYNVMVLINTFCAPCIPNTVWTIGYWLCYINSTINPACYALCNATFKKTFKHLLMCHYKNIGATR
Description: (§1) All tested compounds were purchased from Merck KGaA (Darmstadt, Germany). The radioligand binding experiments were performed with membranes from Chinese Hamster Ovary (CHO) cells stably transfected with the five cloned human muscarinic receptor subtypes (hM1-5). Membrane fractions were prepared according to the protocol, which have been previously described; membranes were stored at −80 °C until use. Nonspecific binding was defined by the radioactivity bound in the presence of 10 µM atropine.
(§2) Off-rate assays were performed as described elsewhere to estimate the affinity of the ligands for the [^3H]-NMS-occupied receptor (log Kocc). Briefly, a high concentration of membranes (about 0.1 mg/mL) was incubated with a high concentration of [^3H]-NMS (2 nM) for 60 min at room temperature (mix membrane). Next, 100 µL aliquots were distributed into polypropylene tubes that were empty or in a final volume of 1 mL binding buffer with 1 µM atropine alone and in the presence of a range of concentrations of tested compound (1 nM–0.1 mM).
(§3) The effect on the radioligand dissociation of each tested ligand was determined at 0 min and at one time point, which was chosen to be ca 2.5 dissociation half-lives of [^3H]-NMS alone from each subtype receptors. Later (80 min for hM1, 20 min for hM2 and 70 min for hM5), the samples were filtered and counted as previously reported. Non specific binding was measured as previously reported.
(§4) All the results are expressed as means ± SEM obtained from 3-4 independent experiments each one performed in duplicate.

[2] = biological target: T2, [3H]-NMS-occupied muscarinic hM5 subtype (Homo sapiens, UniProt P08912); assay: as above; type: binding; details: read-out: log Kocc hM5 (converted)
T2 construct: expressed in transfected cells; host or cells: CHO cells, stably transfected; membrane fractions
T2 sequence (P08912 1-532): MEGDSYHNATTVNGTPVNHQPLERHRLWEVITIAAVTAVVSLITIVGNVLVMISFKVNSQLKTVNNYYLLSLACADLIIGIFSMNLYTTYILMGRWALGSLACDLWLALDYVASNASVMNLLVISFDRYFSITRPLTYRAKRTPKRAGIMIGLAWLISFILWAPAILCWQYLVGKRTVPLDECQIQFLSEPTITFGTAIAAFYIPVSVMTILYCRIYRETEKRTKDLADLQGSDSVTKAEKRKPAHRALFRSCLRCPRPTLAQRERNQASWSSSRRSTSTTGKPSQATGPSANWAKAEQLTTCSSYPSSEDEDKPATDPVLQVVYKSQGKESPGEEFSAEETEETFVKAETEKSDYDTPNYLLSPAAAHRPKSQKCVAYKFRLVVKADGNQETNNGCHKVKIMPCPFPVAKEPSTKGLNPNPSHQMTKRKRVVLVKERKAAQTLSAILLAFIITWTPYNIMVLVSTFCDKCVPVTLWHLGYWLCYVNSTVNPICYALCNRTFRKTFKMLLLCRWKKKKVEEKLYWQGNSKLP
Description: as §1, §2, §3
Data from one-point kinetic experiments were analyzed in order to obtain estimates of the affinity of an allosteric ligand for the [^3H]-NMS occupied receptor (log Kocc) in a single step, using an equation introduced in GraphPad Prism 5.02 [33, 34].
as §4

[3] = biological target: T3, [3H]-NMS-occupied muscarinic hM1 subtype (Homo sapiens, UniProt P11229); assay: biochemical
T3 sequence (P11229 1-460): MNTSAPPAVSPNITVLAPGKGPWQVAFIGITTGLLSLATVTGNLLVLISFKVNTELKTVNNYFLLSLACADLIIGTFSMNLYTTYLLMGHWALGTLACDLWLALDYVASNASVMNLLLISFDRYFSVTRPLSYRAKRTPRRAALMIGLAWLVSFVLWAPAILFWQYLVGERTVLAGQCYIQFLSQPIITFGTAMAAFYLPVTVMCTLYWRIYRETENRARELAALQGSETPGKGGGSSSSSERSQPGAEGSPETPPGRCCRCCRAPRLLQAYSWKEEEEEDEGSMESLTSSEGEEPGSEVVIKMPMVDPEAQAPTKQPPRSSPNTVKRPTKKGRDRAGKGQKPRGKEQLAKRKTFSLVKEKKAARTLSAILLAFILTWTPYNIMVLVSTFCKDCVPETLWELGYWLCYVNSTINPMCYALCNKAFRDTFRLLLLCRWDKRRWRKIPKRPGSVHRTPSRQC
Description: as §1, §2, §3, §4

hM2 muscarinic receptor = biological target: T4, hM2 muscarinic receptor (Homo sapiens, UniProt P08172); assay: Equilibrium inhibition binding with [3H]-NMS, CHO cell membranes; details: [3H]-NMS 0.2 nM, mean ± SEM of 3-4 experiments, read-out: pKi hM2 (converted)
T4 construct: expressed in transfected cells; host or cells: CHO cells, stably transfected; membrane fractions
T4 sequence (P08172 1-466): T1 sequence (P08172 1-466)
Description: as §1
(§5) Aliquots of membranes (25–70 µg/mL) were added and incubated for 2 h at room temperature, filtered through UniFilter GF/B plates (PerkinElmer Life and Analytical Science, Monza, Italy) using a FilterMate cell harvester (PerkinElmer Life and Analytical Science, Monza, Italy). The filters were washed several times with ice-cold MilliQ water. Then, the plates were counted in a β-counter (TopCount NXT microplate scintillation counter, PerkinElmer Life and Analytical Science, Monza, Italy).
(§6) Data points from radioligand inhibition binding curve were fitted to models using nonlinear regression equation to determine inhibitor potency (IC50) estimates, which were then converted to Ki values as appropriate.
as §4

hM4 muscarinic receptor = biological target: T5, hM4 muscarinic receptor (Homo sapiens, UniProt P08173); assay: as above; details: [3H]-NMS 0.2 nM, CHO membranes, mean ± SEM of 3-4 experiments; read-out: pKi hM4 (converted)
T5 construct: expressed in transfected cells; host or cells: CHO cells, stably transfected; membrane fractions
T5 sequence (P08173 1-479): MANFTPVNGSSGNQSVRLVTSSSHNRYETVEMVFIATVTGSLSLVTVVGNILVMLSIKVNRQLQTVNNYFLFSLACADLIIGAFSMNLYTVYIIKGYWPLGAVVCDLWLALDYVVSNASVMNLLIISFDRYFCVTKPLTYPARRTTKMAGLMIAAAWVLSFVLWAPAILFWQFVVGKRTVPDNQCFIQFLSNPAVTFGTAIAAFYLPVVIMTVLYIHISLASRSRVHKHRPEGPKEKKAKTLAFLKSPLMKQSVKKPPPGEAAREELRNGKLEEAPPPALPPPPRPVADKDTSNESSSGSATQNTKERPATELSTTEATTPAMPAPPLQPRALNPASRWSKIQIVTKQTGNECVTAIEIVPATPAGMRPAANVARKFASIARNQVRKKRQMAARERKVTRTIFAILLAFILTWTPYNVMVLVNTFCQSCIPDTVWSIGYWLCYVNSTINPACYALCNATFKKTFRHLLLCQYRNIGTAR
Description: as §1, §5, §6, §4

hM3 muscarinic receptor = biological target: T6, hM3 muscarinic receptor (Homo sapiens, UniProt P20309); assay: as above; details: [3H]-NMS 0.2 nM, mean ± SEM of 3-4 experiments, read-out: pKi hM3 (converted)
T6 construct: expressed in transfected cells; host or cells: CHO cells, stably transfected; membrane fractions
Description: as §1, §5, §6, §4

hM1 muscarinic receptor = biological target: T7, hM1 muscarinic receptor (Homo sapiens, UniProt P11229); assay: as above; details: [3H]-NMS 0.2 nM, mean ± SEM of 3-4 experiments, read-out: pKi hM1 (converted)
T7 construct: expressed in transfected cells; host or cells: CHO cells, stably transfected; membrane fractions
T7 sequence (P11229 1-460): T3 sequence (P11229 1-460)
Description: as §1, §5, §6, §4

hM5 muscarinic receptor = biological target: T8, hM5 muscarinic receptor (Homo sapiens, UniProt P08912); assay: as above; details: [3H]-NMS 0.2 nM, CHO membranes, mean ± SEM of 3-4 experiments; read-out: pKi hM5 (converted)
T8 construct: expressed in transfected cells; host or cells: CHO cells, stably transfected; membrane fractions
T8 sequence (P08912 1-532): T2 sequence (P08912 1-532)
Description: as §1, §5, §6, §4

[4] = biological target: five human muscarinic receptors subtypes (hM1–hM5); assay: Equilibrium binding, summary statements over the five subtypes
Description: as §1, §5, §6, §4

T6 sequence (P20309 whole entry): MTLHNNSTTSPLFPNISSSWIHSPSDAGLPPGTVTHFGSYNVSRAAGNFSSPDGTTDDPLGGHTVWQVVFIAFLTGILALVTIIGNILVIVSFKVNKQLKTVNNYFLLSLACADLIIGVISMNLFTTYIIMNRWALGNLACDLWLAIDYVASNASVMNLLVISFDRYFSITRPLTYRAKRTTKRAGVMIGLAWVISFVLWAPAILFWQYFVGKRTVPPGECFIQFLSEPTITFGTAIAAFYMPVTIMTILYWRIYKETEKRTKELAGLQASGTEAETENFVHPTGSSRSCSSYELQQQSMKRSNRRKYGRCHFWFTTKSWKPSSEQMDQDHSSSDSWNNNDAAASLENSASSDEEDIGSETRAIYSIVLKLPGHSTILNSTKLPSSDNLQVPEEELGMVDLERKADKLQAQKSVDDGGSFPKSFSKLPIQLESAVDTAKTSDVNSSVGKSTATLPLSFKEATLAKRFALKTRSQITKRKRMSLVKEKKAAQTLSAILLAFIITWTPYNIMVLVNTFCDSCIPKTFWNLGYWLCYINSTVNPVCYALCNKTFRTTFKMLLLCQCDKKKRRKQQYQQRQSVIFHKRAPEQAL

| SMILES | selectivity ratio hM2/hM1 ([1]; from log Kocc values) | selectivity ratio hM2/hM5 ([1]; from log Kocc values) | Kd ([1]; read-out: Log Kocc hM2 (converted)) [µM] | Kd [2] [µM] | Kd [3] [µM] | Ki (hM2 muscarinic receptor) [µM] | Ki (hM4 muscarinic receptor) [µM] | Ki (hM3 muscarinic receptor) [µM] | Ki (hM1 muscarinic receptor) [µM] | Ki (hM5 muscarinic receptor) [µM] | pKi values (muscarinic subtypes overall) [4] |
| --- | --- | --- | --- | --- | --- | --- | --- | --- | --- | --- | --- |
| C[N+](C)(CCCCCC[N+](C)(C)CCCN1C(=O)c2ccccc2C1=O)CCCN1C(=O)c2ccccc2C1=O [W84] | 4.6 | 52.5 | 0.288 | 18.2 | 1.62 | 6.17 | 5.01 | 5.5 | 0.891 | 9.12 |  |
| [H]/N=C(\N/C(=N/[H])NCCCCCCNC(=N)NC(=N)Nc1ccc(Cl)cc1)Nc1ccc(Cl)cc1 [chlorhexidine] |  |  |  | 186 | 81.3 |  | 1.62 | 2.14 | 0.501 | 2.24 | around 6 |
| N=C(N)c1ccc(OCCCCCOc2ccc(C(=N)N)cc2)cc1 [pentamidine] |  |  |  | 182 |  |  | 1.32 |  |  | 1.74 |  |
